From patent US4081474A, “Sulfonyloxy bromoacetanilides and their utility as biocides” (Stauffer Chemical Company, priority 1976, dated 1978)
Converted amounts (≈) assume the structure as drawn. Like-named read-outs stand apart in the source and are kept apart here.

Legend:
Assay type in all cases: cell-based
Aspergillus niger [1] = assay: In Vitro Vial Test (malt broth); details: 168 h; for MIC: read-out: Lowest Effective Concentration
Penicillium italicum [2] = assay: In Vitro Vial Test (malt broth); details: 168 h; for MIC: read-out: Lowest Effective Concentration; for minimal effective concentration: read-out: Lowest Effective Concentration (partial control)
Escherichia coli [3] = assay: In Vitro Vial Test (nutrient broth); details: 168 h; for MIC: read-out: Lowest Effective Concentration; for minimal effective concentration: read-out: Lowest Effective Concentration (partial control)
Staphylococcus aureus [4] = assay: In Vitro Vial Test (nutrient broth); details: 168 h; for MIC: read-out: Lowest Effective Concentration
Escherichia coli [5] = assay: Soap Plug Test; details: 1% in sodium stearate soap plug, 37° C., 17 hours
Staphylococcus aureus [6] = assay: Soap Plug Test; details: 1% in sodium stearate soap plug, 37° C., 17 hours
Aspergillus niger [7] = assay: Microbiocide Testing Procedure Using Agar; details: potato dextrose agar, 30° C., read-out: Minimum Inhibitory Concentration
Procedure: (§1) This test measures the bactericidal and fungicidal properties of a compound when in contact with a growing bacterium or fungi in an artificial medium. […] The treated agar mixture is then allowed to come to room temperature and solidify. Cells of the particular organism are then streaked on the surface of the solidified agar and are then incubated for such lengths of time that untreated samples containing no toxicant show luxurious growth typical of the particular organism. This time varies from 24 hours to one week, depending on the particular organism. The fungi are incubated at 30° C. and the bacteria are incubated at 37° C. Nutrient agar is used as the medium in this test for the bacteria. Potato dextrose agar is used as the medium for the fungi.

Escherichia coli [8] = assay: Microbiocide Testing Procedure Using Agar; details: nutrient agar, 37° C., read-out: Minimum Inhibitory Concentration
Procedure: as §1

Penicillium italicum [9] = assay: Microbiocide Testing Procedure Using Agar; details: potato dextrose agar, 30° C.
Procedure: as §1

Staphylococcus aureus [10] = assay: Microbiocide Testing Procedure Using Agar; details: nutrient agar, 37° C., read-out: Minimum Inhibitory Concentration
Procedure: as §1

Escherichia coli [11] = assay: Detergent Formulation Test; details: washed cotton cloth, compounds at 0.2% in Tide detergent, 37° C.
Staphylococcus aureus [12] = assay: Detergent Formulation Test; details: washed cotton cloth, compounds at 0.2% in Tide detergent, 37° C.
[13] = system: Brevibacterium ammoniagenes; assay: Detergent Formulation Test; details: washed cotton cloth, compounds at 0.2% in Tide detergent, 37° C.
[14] = system: Trichophyton mentagrophytes; assay: Detergent Formulation Test; details: washed cotton cloth, compounds at 0.2% in Tide detergent, 37° C.
[15] = malt broth, one week, value printed in: partial control at this concentration
[16] = nutrient broth, one week, value printed in: partial control at this concentration

**Q.** For `CC(C)NC(=O)Oc1cccc(NC(=O)CCl)c1` [B, reference compound], which MIC (Aspergillus niger [1]) is on record?
**A.** > 500 mg/L

**Q.** What about the MIC (Penicillium italicum [2]) of the same compound?
**A.** > 500 mg/L

**Q.** What about the MIC (Escherichia coli [3]) of the same compound?
**A.** > 500 mg/L

**Q.** And the MIC (Staphylococcus aureus [4])?
**A.** > 500 mg/L

**Q.** `CNC(=O)Oc1cccc(NC(=O)CBr)c1` [Compound 2, 3'-N-methyl carbamoyloxy bromoacetanilide] was tested. Which MIC (Aspergillus niger [1]) did it give?
**A.** > 50 mg/L

**Q.** And the MIC (Penicillium italicum [2])?
**A.** > 50 mg/L

**Q.** And the MIC (Escherichia coli [3])?
**A.** 50 mg/L (≈ 174 µM)

**Q.** And the MIC (Staphylococcus aureus [4])?
**A.** 50 mg/L (≈ 174 µM)

**Q.** How did the minimal effective concentration (Aspergillus niger [1]; read-out: Lowest Effective Concentration (partial control)) turn out when `CC(C)NC(=O)Oc1cccc(NC(=O)CBr)c1` [Compound 3] was run?
**A.** 100 µg/mL

**Q.** What about the minimal effective concentration (Penicillium italicum [2]) of the same compound?
**A.** 25 µg/mL

**Q.** What about the MIC (Escherichia coli [3]) of the same compound?
**A.** 25 mg/L (≈ 79.3 µM)

**Q.** What about the MIC (Staphylococcus aureus [4]) of the same compound?
**A.** 10 mg/L (≈ 31.7 µM)

**Q.** What about the “Zone of Biological Inhibition (radius)” value (Escherichia coli [5]) of the same compound?
**A.** 2 mm

**Q.** What about the “Zone of Biological Inhibition (radius)” value (Staphylococcus aureus [6]) of the same compound?
**A.** 6-8 mm

**Q.** For `O=C(Nc1ccc(Cl)cc1)Nc1ccc(Cl)c(Cl)c1` [TCC, 3,4,4-trichlorocarbanilide, reference compound], which “Zone of Biological Inhibition (radius)” value (Escherichia coli [5]) is on record?
**A.** 0 mm

**Q.** What about the “Zone of Biological Inhibition (radius)” value (Staphylococcus aureus [6]) of the same compound?
**A.** 5 mm

**Q.** Which MIC (Aspergillus niger [1]; malt broth, one week) does the source give for `CC(C)CS(=O)(=O)Oc1cccc(NC(=O)CBr)c1` [Compound 7, m-Isobutylsulfonyloxy bromoacetanilide] here?
**A.** > 50 mg/L

**Q.** And the MIC (Penicillium italicum [2]; malt broth, one week)?
**A.** 50 mg/L (≈ 143 µM)

**Q.** What about the MIC (Escherichia coli [3]; nutrient broth, one week) of the same compound?
**A.** > 50 mg/L

**Q.** What about the MIC (Staphylococcus aureus [4]; nutrient broth, one week) of the same compound?
**A.** 50 mg/L (≈ 143 µM)

**Q.** And the MIC (Aspergillus niger [7])?
**A.** > 50 mg/L

**Q.** And the MIC (Escherichia coli [8])?
**A.** > 50 mg/L

**Q.** And the MIC (Penicillium italicum [9]; value printed in, not explained in Table III (Table II: partial control), read-out: Minimum Inhibitory Concentration (value in parentheses))?
**A.** 10 mg/L (≈ 28.6 µM)

**Q.** What about the MIC (Staphylococcus aureus [10]) of the same compound?
**A.** 50 mg/L (≈ 143 µM)

**Q.** `O=C(CBr)Nc1cccc(OC(=O)NC2CCCCC2)c1` [Compound 5] was tested. Which MIC (Aspergillus niger [1]) did it give?
**A.** > 50 mg/L

**Q.** What about the minimal effective concentration (Penicillium italicum [2]) of the same compound?
**A.** 50 µg/mL

**Q.** And the minimal effective concentration (Escherichia coli [3])?
**A.** 50 µg/mL

**Q.** What about the MIC (Staphylococcus aureus [4]) of the same compound?
**A.** 50 mg/L (≈ 141 µM)

**Q.** With `C=CCNC(=O)Oc1cccc(NC(=O)CBr)c1` [Compound 4] as the compound, how does the MIC (Aspergillus niger [1]) read?
**A.** > 50 mg/L

**Q.** What about the MIC (Penicillium italicum [2]) of the same compound?
**A.** 50 mg/L (≈ 160 µM)

**Q.** And the MIC (Escherichia coli [3])?
**A.** > 50 mg/L

**Q.** What about the MIC (Staphylococcus aureus [4]) of the same compound?
**A.** 50 mg/L (≈ 160 µM)

**Q.** `O=C(CBr)Nc1cccc(O)c1` [Compound 1, 3'-hydroxybromoacetanilide] was tested. Which MIC (Aspergillus niger [1]; malt broth, one week) did it give?
**A.** 100 mg/L (≈ 435 µM)

**Q.** What about the minimal effective concentration (Penicillium italicum [2]; [15]) of the same compound?
**A.** 25 µg/mL

**Q.** And the minimal effective concentration (Escherichia coli [3]; [16])?
**A.** 10 µg/mL

**Q.** What about the MIC (Staphylococcus aureus [4]; nutrient broth, one week) of the same compound?
**A.** 10 mg/L (≈ 43.5 µM)

**Q.** And the “Zone of Biological Inhibition (radius)” value (Escherichia coli [5])?
**A.** 2 mm

**Q.** And the “Zone of Biological Inhibition (radius)” value (Staphylococcus aureus [6])?
**A.** 12-15 mm

**Q.** And the “Zone of Biological Inhibition (radius)” value (Escherichia coli [11])?
**A.** 2 mm

**Q.** What about the “Zone of Biological Inhibition (radius)” value (Staphylococcus aureus [12]) of the same compound?
**A.** 3 mm

**Q.** What about the “Zone of Biological Inhibition (radius)” value [13] of the same compound?
**A.** 0 mm

**Q.** What about the “Zone of Biological Inhibition (radius)” value [14] of the same compound?
**A.** 1 mm

**Q.** How did the MIC (Aspergillus niger [1]; malt broth, one week) turn out when `O=C(CCl)Nc1cccc(O)c1` [A, reference compound] was run?
**A.** > 500 mg/L

**Q.** And the minimal effective concentration (Penicillium italicum [2]; [15])?
**A.** 500 µg/mL

**Q.** And the minimal effective concentration (Escherichia coli [3]; [16])?
**A.** 250 µg/mL

**Q.** What about the minimal effective concentration (Staphylococcus aureus [4]; nutrient broth, one week, value printed in: partial control at this concentration, read-out: Lowest Effective Concentration (partial control)) of the same compound?
**A.** 250 µg/mL

**Q.** How did the MIC (Aspergillus niger [1]; malt broth, one week) turn out when `O=C(CBr)Nc1cccc(OS(=O)(=O)c2ccccc2)c1` [Compound 8, m-Phenylsulfonyloxy bromoacetanilide] was run?
**A.** > 50 mg/L

**Q.** What about the MIC (Penicillium italicum [2]; malt broth, one week) of the same compound?
**A.** 50 mg/L (≈ 135 µM)

**Q.** And the MIC (Escherichia coli [3]; nutrient broth, one week)?
**A.** > 50 mg/L

**Q.** And the MIC (Staphylococcus aureus [4]; nutrient broth, one week)?
**A.** 50 mg/L (≈ 135 µM)

**Q.** And the MIC (Aspergillus niger [7])?
**A.** > 50 mg/L

**Q.** What about the MIC (Escherichia coli [8]) of the same compound?
**A.** > 50 mg/L

**Q.** And the MIC (Penicillium italicum [9]; read-out: Minimum Inhibitory Concentration)?
**A.** 50 mg/L (≈ 135 µM)

**Q.** And the MIC (Staphylococcus aureus [10])?
**A.** 10 mg/L (≈ 27 µM)

**Q.** With `O=C(CBr)Nc1ccc(O)cc1` [Compound 6] as the compound, how does the MIC (Aspergillus niger [1]; malt broth, one week) read?
**A.** 50 mg/L (≈ 217 µM)

**Q.** And the MIC (Penicillium italicum [2]; malt broth, one week)?
**A.** 50 mg/L (≈ 217 µM)

**Q.** And the MIC (Escherichia coli [3]; nutrient broth, one week)?
**A.** 25 mg/L (≈ 109 µM)

**Q.** And the MIC (Staphylococcus aureus [4]; nutrient broth, one week)?
**A.** 25 mg/L (≈ 109 µM)
